Among the test systems are NCI-H23 lung; HOP-92 NSCLC; EKVX NSCLC; HCC-2998 colon; HCT-15 colon; U251 CNS; MALME-3M melanoma; NCI-H226 lung; MDA-N; SNB-75 CNS; A498 renal.
What all share (assay): DTP human tumour cell line panel, 48 h

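Growth conditions: 96-well plates. Treatment: test compound, 48 hours, 5 concentrations. Analysis: linear interpolation between bracketing concentrations; unreached endpoints set to highest concentration. TGI: concentration producing complete growth inhibition.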 Where a SMILES comes first, the peptide text is derived from it. The star is where a group is joined. Fmoc = O=C(OCC1c2ccccc2-c2ccccc21)*; OBn = c1ccc(CO*)cc1; tBu = CC(C)(C)*

As to `CC(OC(C)(C)C)C(NC(=O)OCC1c2ccccc2-c2ccccc21)C(=O)NC(Cc1ccccc1)C(=O)OCc1ccccc1` (stereo not given) (Fmoc-Thr(tBu)-Phe-OBn; configuration not given here), the total growth inhibition concentration (TGI) in the experiment on NCI-H23 lung, in the experiment on HOP-92 NSCLC, with EKVX NSCLC, with HCC-2998 colon, in the experiment with HCT-15 colon and in the experiment with U251 CNS was above 100 µM each time. The total growth inhibition concentration (TGI) in the experiment on MALME-3M melanoma, in the experiment with NCI-H226 lung, in the experiment on MDA-N, in the experiment with SNB-75 CNS and with A498 renal was above 100 µM in each case.
`CCOC(=O)c1c(-c2ccc(Cl)cc2)c(C#N)c(=S)n(C2OC(COC(C)=O)C(OC(C)=O)C(OC(C)=O)C2OC(C)=O)c1C` (stereo not given): the total growth inhibition concentration (TGI) with NCI-H23 lung is above 100 µM; in the experiment with HOP-92 NSCLC it was above 20.1 µM; in the experiment with EKVX NSCLC, above 100 µM; in the experiment on HCC-2998 colon it was above 100 µM; in the experiment on HCT-15 colon, above 100 µM; in the experiment with U251 CNS, above 100 µM. In addition, the total growth inhibition concentration (TGI) in the experiment on MALME-3M melanoma is above 100 µM; with NCI-H226 lung it was above 100 µM; in the experiment on MDA-N it was above 100 µM; in the experiment on SNB-75 CNS, 99 µM; in the experiment on A498 renal, above 100 µM.
As to `Clc1ccc(-c2nn3c(COc4ccc(OCc5nnc6sc(-c7ccc(Cl)cc7)nn56)c(Cl)c4)nnc3s2)cc1`, the total growth inhibition concentration (TGI) in the experiment on NCI-H23 lung is 62.3 µM; with HOP-92 NSCLC, 37.8 µM; in the experiment with EKVX NSCLC, above 100 µM; in the experiment with HCC-2998 colon, 44.9 µM; in the experiment on HCT-15 colon, above 100 µM; in the experiment on U251 CNS, 54.7 µM. Besides, the TGI was above 100 µM in the experiment on MALME-3M melanoma; above 100 µM in the experiment with NCI-H226 lung; 67.2 µM with MDA-N; 29.8 µM in the experiment on SNB-75 CNS; 71.1 µM in the experiment on A498 renal.
As for `CC(C)(C)OC(=O)N1CCC2(CC1)C(=O)NCN2c1ccccc1`, the TGI with NCI-H23 lung, in the experiment with HOP-92 NSCLC, in the experiment on EKVX NSCLC, with HCC-2998 colon, in the experiment on HCT-15 colon and in the experiment on U251 CNS was above 100 µM in each case. Moreover, the TGI in the experiment with MALME-3M melanoma, in the experiment with NCI-H226 lung, in the experiment with MDA-N, in the experiment on SNB-75 CNS and in the experiment on A498 renal was above 100 µM in each case.
As to `CSC1=C(C)C(/C=N/Nc2ccc([N+](=O)[O-])cc2)=C(C)N(c2ccccc2)S1(=O)=O`, the total growth inhibition concentration (TGI) in the experiment on NCI-H23 lung, in the experiment on HOP-92 NSCLC, in the experiment on EKVX NSCLC, with HCC-2998 colon, in the experiment with HCT-15 colon and in the experiment with U251 CNS was above 100 µM throughout. Moreover, the concentration for total growth inhibition (TGI) in the experiment with MALME-3M melanoma, in the experiment on NCI-H226 lung, with MDA-N, with SNB-75 CNS and in the experiment with A498 renal was above 100 µM in each case.
Regarding `O=c1c2ccccc2n2nnc3ccc(NCCNCCO)c1c32`, the concentration for total growth inhibition (TGI) in the experiment on NCI-H23 lung came out at 8.85 µM; in the experiment on HOP-92 NSCLC, 6.18 µM; in the experiment with EKVX NSCLC, 8.87 µM; in the experiment on HCC-2998 colon, 3.74 µM; in the experiment on HCT-15 colon, 9.42 µM; in the experiment on U251 CNS, 6.73 µM. Moreover, the TGI was determined as 7.84 µM in the experiment with MALME-3M melanoma; 5.06 µM in the experiment with NCI-H226 lung; 10.3 µM in the experiment with MDA-N; 7.54 µM with SNB-75 CNS; 5.52 µM in the experiment on A498 renal.
For `COc1ccc(/C=C2\N=C3N(Cc4ccccc4)C=C(N)N3C2=O)cc1`, the total growth inhibition concentration (TGI) in the experiment with NCI-H23 lung was above 100 µM; with HOP-92 NSCLC, above 100 µM; in the experiment with EKVX NSCLC, above 100 µM; in the experiment with HCC-2998 colon, above 100 µM; in the experiment with HCT-15 colon it was above 100 µM; in the experiment with U251 CNS it was 92.3 µM. Further, the total growth inhibition concentration (TGI) in the experiment on MALME-3M melanoma is above 100 µM; in the experiment on NCI-H226 lung it was above 100 µM; in the experiment with MDA-N, above 100 µM; in the experiment on SNB-75 CNS, 50.7 µM; in the experiment on A498 renal, above 100 µM.
`COc1cc(/C=C2\C(=O)N(c3ccc(Cl)cc3)C(c3ccccc3)S2(=O)=O)cc(OC)c1OC` (stereo not given): the TGI in the experiment on NCI-H23 lung, with HOP-92 NSCLC, in the experiment with EKVX NSCLC, in the experiment with HCC-2998 colon, in the experiment on HCT-15 colon and in the experiment with U251 CNS was above 100 µM throughout. Moreover, the TGI in the experiment on MALME-3M melanoma was above 100 µM; in the experiment with NCI-H226 lung, above 100 µM; with MDA-N, 20.1 µM; in the experiment with SNB-75 CNS, above 100 µM; in the experiment on A498 renal, above 100 µM.
Turning to `N=C(N)c1ccc(N=Nc2c(O)c(C(=O)Nc3ccccc3)cc3ccccc23)cc1`, the total growth inhibition concentration (TGI) in the experiment on NCI-H23 lung was 76.1 µM; in the experiment with HOP-92 NSCLC it was 33.8 µM; in the experiment on EKVX NSCLC, 41.9 µM; in the experiment with HCC-2998 colon it was above 59.7 µM; in the experiment on HCT-15 colon, above 48.8 µM; with U251 CNS, above 63.1 µM. Moreover, the concentration for total growth inhibition (TGI) in the experiment with MALME-3M melanoma is 97.3 µM; with NCI-H226 lung it was above 100 µM; with MDA-N, above 100 µM; in the experiment on SNB-75 CNS, 52.2 µM; with A498 renal it was above 100 µM.
As to `CCOC(=O)NC(Nc1ccc(C(=O)O)cc1)(C(F)(F)F)C(F)(F)F`, the concentration for total growth inhibition (TGI) in the experiment with NCI-H23 lung, with HOP-92 NSCLC, in the experiment with EKVX NSCLC, in the experiment with HCC-2998 colon, in the experiment with HCT-15 colon and in the experiment with U251 CNS was above 100 µM each time. In addition, the TGI in the experiment on MALME-3M melanoma, in the experiment with NCI-H226 lung, in the experiment with MDA-N, with SNB-75 CNS and in the experiment with A498 renal was above 100 µM each time.
Take `CC(=O)CCN1CC2CN=NC2(C#N)C1` (stereo not given): the concentration for total growth inhibition (TGI) with NCI-H23 lung was above 100 µM; in the experiment on HOP-92 NSCLC it was above 76.3 µM; in the experiment on EKVX NSCLC, above 100 µM; in the experiment on HCC-2998 colon it was above 100 µM; in the experiment on HCT-15 colon, above 100 µM; in the experiment with U251 CNS it was above 100 µM. Besides, the TGI is above 100 µM with MALME-3M melanoma; above 70 µM with NCI-H226 lung; above 100 µM in the experiment on MDA-N; above 100 µM with SNB-75 CNS; above 100 µM in the experiment with A498 renal.
On to `NCC1OC(OC2C(N)CC(N)C(O)C2OC2OC(CO)C(O)C2O)C(N)C(O)C1O` (stereo not given), for which the TGI in the experiment on NCI-H23 lung, in the experiment with HOP-92 NSCLC, in the experiment on EKVX NSCLC, in the experiment on HCC-2998 colon, in the experiment with HCT-15 colon and in the experiment with U251 CNS was above 100 µM in each case. Besides, the total growth inhibition concentration (TGI) with MALME-3M melanoma, with NCI-H226 lung, in the experiment on MDA-N, with SNB-75 CNS and in the experiment on A498 renal was above 100 µM throughout.
As to `CCOc1ccc(Nc2nc(N)nc(N)c2N=O)cc1`, the TGI is above 100 µM with NCI-H23 lung; 62.8 µM in the experiment with HOP-92 NSCLC; above 100 µM with EKVX NSCLC; above 100 µM in the experiment with HCC-2998 colon; above 100 µM in the experiment with HCT-15 colon; above 100 µM with U251 CNS. In addition, the TGI in the experiment with MALME-3M melanoma is above 100 µM; with NCI-H226 lung, above 100 µM; in the experiment on MDA-N, above 100 µM; in the experiment with SNB-75 CNS, 91.7 µM; with A498 renal, above 100 µM.
With `CC1OC23CCCCC2C(C#N)(C#N)C1(C#N)C(=N)O3` (stereo not given), the TGI in the experiment with NCI-H23 lung turned out to be 52.7 µM; in the experiment with HOP-92 NSCLC, 29.3 µM; in the experiment with EKVX NSCLC, 91.1 µM; in the experiment with HCC-2998 colon, 50.1 µM; in the experiment on HCT-15 colon, 37.6 µM; in the experiment on U251 CNS it was 71.5 µM. The TGI in the experiment with MALME-3M melanoma is 43.5 µM; with NCI-H226 lung, above 100 µM; in the experiment on MDA-N, 35.8 µM; in the experiment with SNB-75 CNS, above 100 µM; in the experiment on A498 renal, 61.6 µM.
Take `O=[N+]([O-])C(/C=C(\Cl)[N+](=O)[O-])=C(Nc1ccccc1)Nc1ccccc1`: the total growth inhibition concentration (TGI) with NCI-H23 lung came out at 23.2 µM; in the experiment on HOP-92 NSCLC, 14.4 µM; in the experiment on EKVX NSCLC it was 27.4 µM; with HCC-2998 colon, 37.2 µM; in the experiment with HCT-15 colon, 22.3 µM; with U251 CNS, 27.6 µM. Moreover, the concentration for total growth inhibition (TGI) in the experiment with MALME-3M melanoma worked out at 21 µM; with NCI-H226 lung it was 27.4 µM; with MDA-N, 18.7 µM; with SNB-75 CNS, 14.1 µM; in the experiment with A498 renal, 31.7 µM.
Consider `Cc1cc(S(=O)(=O)NC2=NCc3c(F)cccc3N2)c(S)cc1Cl`, for which the concentration for total growth inhibition (TGI) with HOP-92 NSCLC, in the experiment with EKVX NSCLC, in the experiment with HCC-2998 colon, with HCT-15 colon, in the experiment on U251 CNS and in the experiment on MALME-3M melanoma was above 100 µM each time. The TGI with NCI-H226 lung, in the experiment on MDA-N, in the experiment with SNB-75 CNS and in the experiment on A498 renal was above 100 µM each time.
With `Nc1ccc2c3c1cccc3c(=O)n1c3ccc(Cc4ccc5c(c4)nc4c6ccc(N)c7cccc(c(=O)n54)c76)cc3nc21`, the total growth inhibition concentration (TGI) with NCI-H23 lung, with HOP-92 NSCLC, in the experiment on EKVX NSCLC, in the experiment on HCC-2998 colon, in the experiment on U251 CNS and with MALME-3M melanoma was above 100 µM in each case. The TGI in the experiment with NCI-H226 lung, in the experiment with MDA-N, with SNB-75 CNS and in the experiment with A498 renal was above 100 µM throughout.
As for `COc1cc2ccc(C(C)NCC#N)cc2cc1OC` (stereo not given), the TGI in the experiment with HOP-92 NSCLC, in the experiment with EKVX NSCLC, in the experiment with HCC-2998 colon, with HCT-15 colon, with U251 CNS and in the experiment on MALME-3M melanoma was above 100 µM throughout. In addition, the concentration for total growth inhibition (TGI) in the experiment with NCI-H226 lung, with MDA-N, with SNB-75 CNS and with A498 renal was above 100 µM throughout.

The term TGI denotes the concentration giving total growth inhibition. A higher TGI goes with lower sensitivity of the cells.

Values taken from PubChem BioAssay (NCI).
